Patent US8673866B2, “Stabilized formulation for oral administration of therapeutic agents and related methods” (The University of British Columbia, priority 2009, dated 2014)
Several values for one entry are separate records, joined by “and”; a condition that tells them apart may be missing. Equal values may be shown once.

Experiments:
Leishmania = conditions: visceral leishmaniasis, IV administration; cited from earlier work
[1] = oral; cited from earlier work
[2] = crystalline; cited from earlier work
[3] = Body and organ weights in the murine VL model; type: in vivo, BALB/c mice
Experimental: (§1) To determine the anti-leishmanial activity of a representative oral AmpB formulation, the following studies were completed. BALB/c mice were intravenously infected with 5×10^7 Leishmania donovani LV82 promastigotes (obtained by culturing amastigotes taken directly from the spleen of an infected hamster) seven days prior to treatment. Following the seven days, mice were either administered five daily doses of miltefosine at 3 mg/kg po, or Formulation A at 2.5, 5, and 10 mg/kg po bid for five consecutive days or 20 mg/kg po qd for five consecutive days. Appropriate vehicle controls were also assessed. Animals were sacrificed 14 days post infection and Leishman-Donovan units (LDU) were assessed in livers of mice post mortem via microscopic enumeration of Giemsa-stained liver smears

Leishmania donovani LV82 = assay: Visceral leishmaniasis-infected murine model (liver LDU, BALB/c mice); type: in vivo
Experimental: as §1

[4] = 3 mg/kg p.o. qd, individual mice

For `C[C@@H]1[C@H](O)[C@@H](C)/C=C/C=C/C=C/C=C/C=C/C=C/C=C/[C@H](O[C@@H]2O[C@H](C)[C@@H](O)[C@H](N)[C@@H]2O)C[C@@H]2O[C@](O)(C[C@@H](O)C[C@@H](O)[C@H](O)CC[C@@H](O)C[C@@H](O)CC(=O)O[C@H]1C)C[C@H](O)[C@H]2C(=O)O` (relative stereo) [amphotericin B, [1R-(1R*,3S*,5R*,6R*,9R*,11R*,15S*,16R*,17R*,18S*,19E,21E,23E,25E, 27E,29E,31E,33R*,35S*,36R*,37S,)]-33-[(3-amino-3,6-dideoxy-β-D-mannopyranosyl)oxy]1,3,5,6,9,11,17,37-octahydroxy-15,16,18-trimethyl-13-oxo-14,39-dioxabicyclo-[33.3.1]nonatriaconta-19,21,23,25,27,29,31-heptaene-36-carboxylic acid], which cure rate (Leishmania) is on record?
The cure rate was 97%.

What about the bioavailability [1] of the same compound?
The bioavailability was “negligible”.

What about the solubility in water [2] of the same compound?
The solubility in water was “insoluble”.

What does the source list for `CCCCCCCCCCCCCCCCOP(=O)([O-])OCC[N+](C)(C)C` [Miltefosine, miltefosine]?
Body Weight [3, 4]: 19.8 g (2×) and 18.8 g and 18.5 g; Mean Body Weight Post-treatment ([3]; 3 mg/kg, p.o. qd): 19.2 g; Mean Body Weight Pre-treatment ([3]; 3 mg/kg, p.o. qd): 19.3 g; LDU mean ± SD (Leishmania donovani LV82; 3 mg/kg p.o. qd, group mean (n=4)): 1537.604; LDU (Leishmania donovani LV82; [4]): 1581.58 and 1431.131 and 1736.921 and 1400.783; # of amastigotes per 200 nuclei (Leishmania donovani LV82; 3 mg/kg p.o. qd, liver smears, individual mice): 286 and 283 and 301 and 262; % Reduction compared to Vehicle control (Average) (Leishmania donovani LV82; 3 mg/kg, p.o. qd): 51.7%; % Reduction compared to water control (Average) (Leishmania donovani LV82; 3 mg/kg, p.o. qd): 49.3%; inhibition of liver parasites (Leishmania donovani LV82; five daily doses at 3 mg/kg po): 47.5±7.0%
